Assay results as given in patent US20230278981A1, “DICHLOROPHENOL HSD17B13 INHIBITORS AND USES THEREOF” (INIPHARM, INC., priority 2020, published 2023).

Molecular target: HSD17B13 (Homo sapiens (Human), UniProt Q7Z5P4)
Experiment: LC/MS estrone detection assay: conversion of estradiol to estrone by HSD17B13
Format: biochemical
Conditions: 4 μM estradiol, 6 mM NAD+, 30 nM HSD17B13 enzyme (E. coli expressed His-tagged), 2 hours at 26.5° C.
Procedure: The liquid chromatography/mass spectrometry (LC/MS) estrone detection assay monitors the conversion of estradiol to estrone by HSD17B13. This assay was undertaken in a 96wp format (Eppendorf deep well Plate 96/500) in an 80 μl reaction volume containing: 4 μM of Estradiol (E2; Cayman; Ser. No. 10/006,315), 6 mM NAD+(Sigma; #N0623) and 30 nM HSD17B13 enzyme (in-house; E. coli expressed His-tagged, purified, soluble protein) in a reaction containing […] potassium phosphate buffer pH 7.4, with 0.5% vehicle (DMSO). Reactions were incubated for 2 hours at 26.5° C., and estradiol (E2) conversion to estrone (E1) was quantitated by LC-MS/MS based analyte detection for both E2 and E1 using LCMS grade reagents.
Reactions were terminated by the addition of two volumes of acetonitrile (MeCN; LCMS grade; CAS #75/05/8) containing deuterated (D4)-E1 used as internal standard (Clear Synth; #CS-T-54273; 500 ng/mL final concentration). Samples were applied to pre-prepared Bond Elut-C18 extraction cartridges (3 mL; Agilent; Ser. No. 12/102,028), washed and eluted in MeCN. Eluates were dried under nitrogen and re-suspended in 60% methanol (LCMS grade methanol; CAS #67/56/1) before submission for analysis. Aqueous linearity for E2 and E1 were included for quantification.
Analysis of samples was undertaken on a XBridge BEH C18 column (Waters; #186003033) using 0.1% Diethyl Amine in MeCN (mobile phase A; DEA CAS #109-89-7) and 0.1% Diethyl Amine in milli-Q water (mobile phase B) in a 3 min gradient allowing 25% B. Analytes were detected in negative mode using MRM analysis, with E2 having a RT of 1.85 min and E1 having a RT of 2 min. Activity of the enzyme, in the absence of NAD^+, was used to evaluate specificity of conversion. Enzyme activity in the presence of test samples was expressed as a percentage of the uninhibited enzyme activity, and plotted versus inhibitor concentration. Non-linear regression was performed using a four-parameter logistic model and GraphPad Prism software (GraphPad Software, La Jolla, Calif.). All assessments were undertaken in duplicate evaluations and pooled during extraction process and subsequently injected as duplicates for LC-MS/MS analysis.

Sequence of HSD17B13 (Q7Z5P4 20-300): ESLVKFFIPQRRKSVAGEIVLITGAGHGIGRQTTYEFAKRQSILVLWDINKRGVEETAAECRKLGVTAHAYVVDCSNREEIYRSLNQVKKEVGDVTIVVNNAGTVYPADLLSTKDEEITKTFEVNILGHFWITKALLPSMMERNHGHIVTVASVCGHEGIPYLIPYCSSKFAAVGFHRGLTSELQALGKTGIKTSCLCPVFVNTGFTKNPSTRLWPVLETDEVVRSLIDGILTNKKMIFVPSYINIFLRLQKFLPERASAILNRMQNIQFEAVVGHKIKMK

SMILES	IC50 [nM]
Cc1ccc(NC(=O)c2cc(Cl)c(O)c(Cl)n2)c2c(=O)n(Cc3ncccc3C(F)(F)F)c(C(F)F)nc12 [Example 177, 4,6-dichloro-N-(2-(difluoromethyl)-8-methyl-4-oxo-3-((3-(trifluoromethyl)pyridin-2-yl)methyl)-3,4-dihydroquinazolin-5-yl)-5-hydroxypicolinamide]	100 to 500
Cc1nsc(NC(=O)c2cc(Cl)c(O)c(Cl)n2)c1C(=O)N[C@@H](C)c1ccccc1F [Example 115, (S)-5-(4,6-dichloro-5-hydroxypicolinamido)-N-(1-(2-fluorophenyl)ethyl)-3-methylisothiazole-4-carboxamide]	100 to 500
Cc1nc2c(F)ccc(NC(=O)c3cc(Cl)c(O)c(Cl)c3)c2c(=O)n1[C@H](C)c1ccccc1OC(F)(F)F [Example 174, (R)-3,5-dichloro-N-(8-fluoro-2-methyl-4-oxo-3-(1-(2-(trifluoromethoxy)phenyl)ethyl)-3,4-dihydroquinazolin-5-yl)-4-hydroxybenzamide]	100 to 500
Cc1nc2c(F)ccc(NC(=O)c3cc(Cl)c(O)c(Cl)c3)c2c(=O)n1Cc1ccccc1C(F)(F)F [Example 158, 3,5-dichloro-N-(8-fluoro-2-methyl-4-oxo-3-(2-(trifluoromethyl)benzyl)-3,4-dihydroquinazolin-5-yl)-4-hydroxybenzamide]	≤ 100
O=C(Nc1scnc1C(=O)NCc1cccc(F)c1)c1cc(Cl)c(O)c(Cl)n1 [Example 189, 5-(4,6-dichloro-5-hydroxypicolinamido)-N-(3-fluorobenzyl)thiazole-4-carboxamide]	100 to 500
CN(C)CCOc1ccc(NC(=O)c2cc(Cl)c(O)c(Cl)c2)c(C(=O)NCc2ccccc2OC(F)(F)F)c1 [Example 85, 3,5-dichloro-N-(4-(2-(dimethylamino)ethoxy)-2-((2-(trifluoromethoxy)benzyl)carbamoyl)phenyl)-4-hydroxybenzamide]	> 10000
Cc1ccc(NC(=O)c2cc(Cl)c(O)c(Cl)n2)c2c(=O)n(Cc3ccccc3OC(F)(F)F)c(C)nc12 [Example 141, 4,6-dichloro-N-(2,8-dimethyl-4-oxo-3-(2-(trifluoromethoxy)benzyl)-3,4-dihydroquinazolin-5-yl)-5-hydroxypicolinamide]	≤ 100
Cc1nc2c(F)ccc(NC(=O)c3cc(Cl)c(O)c(Cl)c3)c2c(=O)n1Cc1nn(C)c2ccccc12 [Example 190, 3,5-dichloro-N-(8-fluoro-2-methyl-3-((1-methyl-1H-indazol-3-yl)methyl)-4-oxo-3,4-dihydroquinazolin-5-yl)-4-hydroxybenzamide]	≤ 100
Cn1nc(CNC(=O)c2ncsc2NC(=O)c2cc(Cl)c(O)c(Cl)c2)c2ccccc21 [Example 188, 5-(3,5-dichloro-4-hydroxybenzamido)-N-((1-methyl-1H-indazol-3-yl)methyl)thiazole-4-carboxamide]	≤ 100
Cc1ccc(NC(=O)c2cc(Cl)c(O)c(Cl)c2)c2c(=O)n([C@@H]3CC[C@H]3c3ccccc3)c(C)nc12 [Example 203, 3,5-dichloro-N-(2,8-dimethyl-4-oxo-3-((1R,2S)-2-phenylcyclobutyl)-3,4-dihydroquinazolin-5-yl)-4-hydroxybenzamide]	≤ 100
O=C(Nc1cccc2ncn(Cc3cccc(OC(F)(F)F)c3)c(=O)c12)c1ccc(Cl)c(O)c1Cl [Example 65, 2,4-dichloro-3-hydroxy-N-(4-oxo-3-(3-(trifluoromethoxy)benzyl)-3,4-dihydroquinazolin-5-yl)benzamide]	1000 to 10000
Cc1ccc(NC(=O)c2cc(Cl)c(O)c(Cl)n2)c2c(=O)n(Cc3ccccc3OC(F)(F)F)c(C(F)F)nc12 [Example 160, 4,6-dichloro-N-(2-(difluoromethyl)-8-methyl-4-oxo-3-(2-(trifluoromethoxy)benzyl)-3,4-dihydroquinazolin-5-yl)-5-hydroxypicolinamide]	≤ 100

Continued, values first:

IC50 [nM]	SMILES
≤ 100	O=C(Nc1cccc2ncn(C(c3ccccc3)c3ccccc3)c(=O)c12)c1cc(Cl)c(O)c(Cl)c1 [Example 78, N-(3-benzhydryl-4-oxo-3,4-dihydroquinazolin-5-yl)-3,5-dichloro-4-hydroxybenzamide]
≤ 100	C[C@H](c1cccc(F)c1)n1cnc2cccc(NC(=O)c3cc(Cl)c(O)c(Cl)c3)c2c1=O [Example 47, (R)-3,5-dichloro-N-(3-(1-(3-fluorophenyl)ethyl)-4-oxo-3,4-dihydroquinazolin-5-yl)-4-hydroxybenzamide]
> 10000	NS(=O)(=O)c1ccccc1Cn1cnc2cccc(NC(=O)c3cc(Cl)c(O)c(Cl)c3)c2c1=O [Example 106, 3,5-dichloro-4-hydroxy-N-(4-oxo-3-(2-sulfamoylbenzyl)-3,4-dihydroquinazolin-5-yl)benzamide]
100 to 500	O=C(Nc1cccc2ncn(Cc3cccnc3Cl)c(=O)c12)c1cc(Cl)c(O)c(Cl)n1 [Example 129, 4,6-dichloro-N-{3-[(2-chloropyridin-3-yl)methyl]-4. oxo-3,4-dihydroquinazolin-5-yl}-5-hydroxypyridine-2-carboxamide]
500 to 1000	CS(=O)(=O)c1ccccc1Cn1cnc2cccc(NC(=O)c3cc(Cl)c(O)c(Cl)n3)c2c1=O [Example 79, 4,6-dichloro-5-hydroxy-N-(3-(2-(methylsulfonyl)benzyl)-4-oxo-3,4-dihydroquinazolin-5-yl)picolinamide]
≤ 100	O=C(Nc1cccc2ncn(Cc3cccc(F)c3)c(=O)c12)c1cc(Cl)c(O)c(Cl)n1 [Example 22, 4,6-dichloro-N-{3-[(3-fluorophenyl)methyl]-4-oxo-3,4-dihydroquinazolin-5-yl}-5-hydroxypyridine-2-carboxamide]
≤ 100	O=C(Nc1cccc2ncn(Cc3n[nH]c4ccccc34)c(=O)c12)c1cc(Cl)c(O)c(Cl)c1 [Example 67, N-(3-((1H-indazol-3-yl)methyl)-4-oxo-3,4-dihydroquinazolin-5-yl)-3,5-dichloro-4-hydroxybenzamide]
100 to 500	O=C(Nc1csc2ncn(Cc3ccccc3)c(=O)c12)c1cc(Cl)c(O)c(Cl)c1 [Example 97, N-(3-benzyl-4-oxo-3,4-dihydrothieno[2,3-d]pyrimidin-5-yl)-3,5-dichloro-4-hydroxybenzamide]
100 to 500	O=C(Nc1cccc2ncn(Cc3ncccc3Cl)c(=O)c12)c1cc(Cl)c(O)c(Cl)n1 [Example 148, 4,6-dichloro-N-(3-((3-chloropyridin-2-yl)methyl)-4-oxo-3,4-dihydroquinazolin-5-yl)-5-hydroxypicolinamide]
100 to 500	O=C(Nc1cccc2ncn(CC3CC3)c(=O)c12)c1cc(Cl)c(O)c(Cl)c1 [Example 3, 3,5-dichloro-N-(3-(cyclopropylmethyl)-4-oxo-3,4-dihydroquinazolin-5-yl)-4-hydroxybenzamide]
100 to 500	COc1ccccc1CCn1cnc2cccc(NC(=O)c3cc(Cl)c(O)c(Cl)c3)c2c1=O [Example 36, 3,5-dichloro-4-hydroxy-N-(3-(2-methoxyphenethyl)-4-oxo-3,4-dihydroquinazolin-5-yl)benzamide]
100 to 500	O=C(Nc1ccnc2[nH]c(=O)n(Cc3ccccc3OC(F)(F)F)c(=O)c12)c1cc(Cl)c(O)c(Cl)c1 [Example 95, 3,5-dichloro-N-(2,4-dioxo-3-(2-(trifluoromethoxy)benzyl)-1,2,3,4-tetrahydropyrido[2,3-d]pyrimidin-5-yl)-4-hydroxybenzamide]
1000 to 10000	O=C(Nc1cccc2ncn([C@@H]3C[C@H]3c3ccccc3)c(=O)c12)c1cc(Cl)c(O)c(Cl)c1 (racemic) [Example 102, Rac-3,5-dichloro-4-hydroxy-N-(4-oxo-3-((1R,2S)-2-phenylcyclopropyl)-3,4-dihydroquinazolin-5-yl)benzamide]
100 to 500	O=C(Nc1cccc2ncn(Cc3ccc(OCCO)cc3)c(=O)c12)c1cc(Cl)c(O)c(Cl)c1 [Example 58, 3,5-dichloro-4-hydroxy-N-(3-(4-(2-hydroxyethoxy)benzyl)-4-oxo-3,4-dihydroquinazolin-5-yl)benzamide]
1000 to 10000	O=C(Nc1nccc2ncn(Cc3ccccc3OC(F)(F)F)c(=O)c12)c1cc(Cl)c(O)c(Cl)c1 [Example 124, 3,5-dichloro-4-hydroxy-N-(4-oxo-3-(2-(trifluoromethoxy)benzyl)-3,4-dihydropyrido[4,3-d]pyrimidin-5-yl)benzamide]
500 to 1000	Cn1ccc(Cn2cnc3cccc(NC(=O)c4cc(Cl)c(O)c(Cl)c4)c3c2=O)n1 [Example 56, 3,5-dichloro-4-hydroxy-N-{3-[(1-methyl-1H-pyrazol-3-yl)methyl]-4-oxo-3,4-dihydroquinazolin-5-yl}benzamide]
